Experimental data taken from US12162865B2, “Methods of treating cancer” (Epizyme, Inc., priority 2012, dated 2024).
Entries after “also recorded” stand apart in the source; their conditions may differ. Read-outs that look alike come from different tables or passages of the source.

Assays:
PRMT6 = PRMT6 (Homo sapiens, UniProt Q96LA8); test: Histone methyltransferase inhibition, PRMT6; type: biochemical; conditions: read-out: % Inhibition at 1 μM Compound A, mean and SD of duplicate experiments
H3K27Me3 in G401 cells = conditions: 4 days, acid-extracted histones, immunoblot
Description: (§1) A204, G401, and G402 cells were cultured in McCoys 5a+10% FBS.
(§2) Cells were pelleted, washed with ice cold PBS, resuspended in ice cold RIPA buffer, and incubated on ice for 5 minutes. Lysates were sonicated 3× for 10 sec at 50% power, then incubated on ice for 10 minutes. Lysates were then centrifuged at max speed for 15 minutes at 4 degrees in a table top centrifuge. Clarified lysates were aliquoted to a fresh tube, and protein concentrations for WCL were determined by BCA assay (Pierce).

EHMT2 = EHMT2 (Homo sapiens, UniProt Q96KQ7); test: Histone methyltransferase inhibition, EHMT2; type: biochemical
EHMT2, sequence (Q96KQ7 whole entry, species assumed): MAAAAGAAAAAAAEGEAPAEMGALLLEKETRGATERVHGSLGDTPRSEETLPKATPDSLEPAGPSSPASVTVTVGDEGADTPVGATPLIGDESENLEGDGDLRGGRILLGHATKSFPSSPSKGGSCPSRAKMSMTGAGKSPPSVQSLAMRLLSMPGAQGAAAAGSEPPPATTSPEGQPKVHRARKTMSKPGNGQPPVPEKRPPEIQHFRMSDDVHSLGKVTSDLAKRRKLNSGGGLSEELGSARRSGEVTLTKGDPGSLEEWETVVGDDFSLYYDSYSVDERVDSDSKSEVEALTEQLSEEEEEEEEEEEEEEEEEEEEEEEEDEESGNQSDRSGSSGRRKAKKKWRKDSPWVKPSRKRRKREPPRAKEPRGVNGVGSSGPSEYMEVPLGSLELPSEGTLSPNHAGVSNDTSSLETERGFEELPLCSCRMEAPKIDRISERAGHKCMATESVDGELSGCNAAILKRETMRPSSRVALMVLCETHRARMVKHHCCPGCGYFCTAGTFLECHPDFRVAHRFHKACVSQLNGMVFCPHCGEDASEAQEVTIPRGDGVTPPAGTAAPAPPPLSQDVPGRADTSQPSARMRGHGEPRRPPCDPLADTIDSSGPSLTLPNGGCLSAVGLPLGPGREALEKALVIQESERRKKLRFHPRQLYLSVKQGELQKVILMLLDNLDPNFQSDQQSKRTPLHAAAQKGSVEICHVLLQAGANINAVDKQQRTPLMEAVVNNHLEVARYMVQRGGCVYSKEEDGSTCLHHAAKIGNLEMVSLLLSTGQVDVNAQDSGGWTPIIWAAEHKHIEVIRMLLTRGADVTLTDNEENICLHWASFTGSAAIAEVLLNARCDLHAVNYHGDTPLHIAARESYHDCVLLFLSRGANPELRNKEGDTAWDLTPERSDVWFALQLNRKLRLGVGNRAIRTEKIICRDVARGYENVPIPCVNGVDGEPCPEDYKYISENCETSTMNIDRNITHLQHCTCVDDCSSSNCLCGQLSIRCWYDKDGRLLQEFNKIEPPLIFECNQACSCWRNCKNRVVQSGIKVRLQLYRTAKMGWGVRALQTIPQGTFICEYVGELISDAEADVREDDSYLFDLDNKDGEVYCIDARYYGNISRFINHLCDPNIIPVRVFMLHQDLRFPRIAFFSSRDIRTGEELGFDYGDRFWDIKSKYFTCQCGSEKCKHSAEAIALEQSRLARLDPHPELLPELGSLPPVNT

WHSC1 = WHSC1 (Homo sapiens, UniProt O96028); test: Histone methyltransferase inhibition, WHSC1; type: biochemical
PRMT1 = PRMT1 (Homo sapiens, UniProt Q99873); test: Histone methyltransferase inhibition, PRMT1; type: biochemical
[1] = test system: SMARCB1 regulated genes in RD control cells; test: Gene expression analysis (qPCR), RD cells; type: cell-based; conditions: 1 μM
Description: (§3) Gene expression was normalized to 18S (AB #Hs99999901_s1) and fold change was calculated using the ΔΔCt method. For the in vivo samples, the average Ct value+/−SD was determined for each dose group and fold change compared to vehicle dose group was calculated using the ΔΔCt method.

SMYD3 = SMYD3 (Homo sapiens, UniProt Q9H7B4); test: Histone methyltransferase inhibition, SMYD3; type: biochemical; conditions: read-out: % Inhibition at 1 μM Compound A, mean and SD of duplicate experiments
Pfeiffer cells = conditions: Pfeiffer (EZH2 A677G); 11-day proliferation
[2] = test system: SMARCB1 regulated genes in G401 cells; test: Gene expression analysis (qPCR), G401 cells; type: cell-based; conditions: 1 μM, up to 7 days, time-dependent
Description: as §3

[3] = test system: G401 SMARCB1-deleted cells; test: Cell cycle analysis (flow cytometry) and TUNEL assay, G401; type: cell-based; conditions: 1 μM, up to 14 days
Description: (§4) Cell cycle analysis and TUNEL assay were performed using a Guava® flow cytometer, following the manufacturer's protocol.

KARPAS-422 xenografts = test: KARPAS-422 xenograft in mice; type: in vivo, nude mice; conditions: for antitumor effect, intermittent dosing schedules: 7-day on/7-day off and 21 day on/7 day off
[4] = test system: WSU-DLCL2 Human Lymphoma Cells; test: Washout experiments, WSU-DLCL2 proliferation (LCC); type: cell-based
CARM1 = CARM1 (Homo sapiens, UniProt Q86X55); test: Histone methyltransferase inhibition, CARM1; type: biochemical
[5] = test system: subcutaneous G401 xenografts
Description: ELISA: Histones were isolated from tumors as previously described (Daigle et al) and were prepared in equivalent concentrations (0.5 ng/ul for H3 and 4 ng/ul for H3K27Me3) in coating buffer (PBS with 0.05% BSA). […] The plates were sealed and incubated overnight at 4° C. The following day, plates were washed 3 times with 300 μL/well PBST (PBS with 0.05% Tween 20; 10×PBST, KPL #51-14-02) on a Bio Tek plate washer. Plates were blocked with 300 μL/well of diluent (PBS+2% BSA+0.05% Tween 20), incubated at room temperature for 2 hours, and washed 3 times with PBST. All antibodies were diluted in diluent. […] Plates were incubated for 90 minutes at room temperature and washed 3 times with PBST. […] Plates were washed 4 times with PBST. For detection, 100 μL/well of TMB substrate (BioFx Laboratories, #TMBS) was added and plates incubated in the dark at room temperature for 5 minutes. Reaction was stopped with 100 μL/well 1N H2SO4. Absorbance at 450 nm was read on SpectraMax M5 Microplate reader.
Xenograft study: All the procedures related to animal handling, care and the treatment in this study were performed according to the guidelines approved by the Institutional Animal Care and Use Committee (IACUC) of Shanghai Chemparner following the guidance of the Association for Assessment and Accreditation of Laboratory Animal Care (AAALAC). […] Animal body weights were measured every day during the first week, then twice weekly for the remainder of the study. Tumor size was measured twice weekly in two dimensions using a caliper, and the volume was expressed in mm^3. […] The remaining mice continued dosing for one more week, and from day 29, treatment was stopped and the mice were enrolled in a tumor growth delay study. Mice were observed as individuals until they reached the tumor weight endpoint (2000 mm^3) or until day 60 (whichever came first).

EHMT1 = EHMT1 (Homo sapiens, UniProt Q9H9B1); test: Histone methyltransferase inhibition, EHMT1; type: biochemical
PRMT8 = PRMT8 (Homo sapiens, UniProt Q9NR22); test: Histone methyltransferase inhibition, PRMT8; type: biochemical
PRMT8, sequence (Q9NR22 whole entry, species assumed): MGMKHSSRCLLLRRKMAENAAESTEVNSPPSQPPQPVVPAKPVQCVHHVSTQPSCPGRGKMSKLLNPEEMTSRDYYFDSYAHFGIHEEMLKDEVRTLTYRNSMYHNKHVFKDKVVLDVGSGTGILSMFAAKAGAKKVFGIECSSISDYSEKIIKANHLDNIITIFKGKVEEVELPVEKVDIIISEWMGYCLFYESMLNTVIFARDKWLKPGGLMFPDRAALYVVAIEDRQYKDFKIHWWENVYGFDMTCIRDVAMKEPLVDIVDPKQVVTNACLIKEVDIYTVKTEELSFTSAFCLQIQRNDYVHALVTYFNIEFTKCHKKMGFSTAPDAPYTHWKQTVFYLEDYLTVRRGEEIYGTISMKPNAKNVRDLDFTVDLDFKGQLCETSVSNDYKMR

DOT1L = DOT1L (Homo sapiens, UniProt Q8TEK3); test: Histone methyltransferase inhibition, DOT1L; type: biochemical
DOT1L, sequence (Q8TEK3 whole entry, species assumed): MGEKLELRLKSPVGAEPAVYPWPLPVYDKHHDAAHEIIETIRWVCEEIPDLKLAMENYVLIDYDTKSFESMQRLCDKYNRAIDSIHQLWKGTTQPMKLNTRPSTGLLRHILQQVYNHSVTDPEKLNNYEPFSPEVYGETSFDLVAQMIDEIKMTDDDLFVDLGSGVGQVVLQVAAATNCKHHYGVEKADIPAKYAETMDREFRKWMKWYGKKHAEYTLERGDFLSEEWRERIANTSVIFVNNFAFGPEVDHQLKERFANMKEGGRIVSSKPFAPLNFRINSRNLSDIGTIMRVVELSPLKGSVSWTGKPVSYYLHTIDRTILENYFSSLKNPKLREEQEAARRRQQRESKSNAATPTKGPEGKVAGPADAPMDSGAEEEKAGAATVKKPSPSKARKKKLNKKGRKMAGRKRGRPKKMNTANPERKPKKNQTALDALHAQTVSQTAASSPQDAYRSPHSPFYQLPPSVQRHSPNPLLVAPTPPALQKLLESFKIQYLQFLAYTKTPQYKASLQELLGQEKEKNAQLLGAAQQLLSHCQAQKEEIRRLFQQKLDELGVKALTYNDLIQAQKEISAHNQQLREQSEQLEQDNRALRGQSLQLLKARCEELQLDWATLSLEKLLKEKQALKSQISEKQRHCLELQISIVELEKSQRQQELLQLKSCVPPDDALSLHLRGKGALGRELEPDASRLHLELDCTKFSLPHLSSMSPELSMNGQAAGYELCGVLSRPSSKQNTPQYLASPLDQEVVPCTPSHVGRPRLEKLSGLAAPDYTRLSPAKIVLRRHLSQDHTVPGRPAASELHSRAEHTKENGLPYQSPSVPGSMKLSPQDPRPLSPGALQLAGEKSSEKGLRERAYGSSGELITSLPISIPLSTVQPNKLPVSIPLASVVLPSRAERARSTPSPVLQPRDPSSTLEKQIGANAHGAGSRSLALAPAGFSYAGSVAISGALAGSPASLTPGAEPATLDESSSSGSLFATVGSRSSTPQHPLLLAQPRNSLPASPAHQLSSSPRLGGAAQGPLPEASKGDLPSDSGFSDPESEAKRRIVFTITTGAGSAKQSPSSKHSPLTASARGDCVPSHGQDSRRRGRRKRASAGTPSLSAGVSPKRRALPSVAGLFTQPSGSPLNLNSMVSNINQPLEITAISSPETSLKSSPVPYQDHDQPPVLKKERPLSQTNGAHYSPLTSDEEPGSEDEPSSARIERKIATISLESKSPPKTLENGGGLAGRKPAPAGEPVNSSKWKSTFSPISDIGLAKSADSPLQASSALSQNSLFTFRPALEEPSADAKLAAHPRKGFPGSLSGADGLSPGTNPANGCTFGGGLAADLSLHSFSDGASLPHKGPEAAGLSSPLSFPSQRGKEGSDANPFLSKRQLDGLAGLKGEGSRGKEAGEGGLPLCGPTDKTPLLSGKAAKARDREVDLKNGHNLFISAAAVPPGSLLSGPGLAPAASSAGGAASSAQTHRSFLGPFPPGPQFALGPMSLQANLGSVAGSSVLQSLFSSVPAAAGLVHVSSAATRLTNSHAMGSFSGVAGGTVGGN

[6] = test system: G402 SMARCB1-deleted cells; test: Cell morphology, G402 cells; type: cell-based; conditions: 1 μM, 14 days
WSU-DLCL2 cells [7] = test: Cell cycle progression and apoptosis (TUNEL), WSU-DLCL2; type: cell-based, human
SETD7 = SETD7 (Homo sapiens, UniProt Q8WTS6); test: Histone methyltransferase inhibition, SETD7; type: biochemical; conditions: read-out: % Inhibition at 1 μM Compound A, mean and SD of duplicate experiments
[8] = Oral administration to rodents (bioavailability); type: in vivo; conditions: administered to rodents
PRMT5/MEP50 = PRMT5/MEP50 (Homo sapiens, UniProt O14744); test: Histone methyltransferase inhibition, PRMT5/MEP50; type: biochemical
PRMT3 = PRMT3 (Homo sapiens, UniProt O60678); test: Histone methyltransferase inhibition, PRMT3; type: biochemical; conditions: read-out: % Inhibition at 1 μM Compound A, mean and SD of duplicate experiments
H3K27Me3 in RD cells = conditions: 4 days, acid-extracted histones, immunoblot
Description: as §1, §2

WSU-DLCL2 cells [9] = conditions: with mouse plasma protein binding considered
WHSC1L1 = WHSC1L1 (Homo sapiens, UniProt Q9BZ95); test: Histone methyltransferase inhibition, WHSC1L1; type: biochemical
WHSC1L1, sequence (Q9BZ95 whole entry, species assumed): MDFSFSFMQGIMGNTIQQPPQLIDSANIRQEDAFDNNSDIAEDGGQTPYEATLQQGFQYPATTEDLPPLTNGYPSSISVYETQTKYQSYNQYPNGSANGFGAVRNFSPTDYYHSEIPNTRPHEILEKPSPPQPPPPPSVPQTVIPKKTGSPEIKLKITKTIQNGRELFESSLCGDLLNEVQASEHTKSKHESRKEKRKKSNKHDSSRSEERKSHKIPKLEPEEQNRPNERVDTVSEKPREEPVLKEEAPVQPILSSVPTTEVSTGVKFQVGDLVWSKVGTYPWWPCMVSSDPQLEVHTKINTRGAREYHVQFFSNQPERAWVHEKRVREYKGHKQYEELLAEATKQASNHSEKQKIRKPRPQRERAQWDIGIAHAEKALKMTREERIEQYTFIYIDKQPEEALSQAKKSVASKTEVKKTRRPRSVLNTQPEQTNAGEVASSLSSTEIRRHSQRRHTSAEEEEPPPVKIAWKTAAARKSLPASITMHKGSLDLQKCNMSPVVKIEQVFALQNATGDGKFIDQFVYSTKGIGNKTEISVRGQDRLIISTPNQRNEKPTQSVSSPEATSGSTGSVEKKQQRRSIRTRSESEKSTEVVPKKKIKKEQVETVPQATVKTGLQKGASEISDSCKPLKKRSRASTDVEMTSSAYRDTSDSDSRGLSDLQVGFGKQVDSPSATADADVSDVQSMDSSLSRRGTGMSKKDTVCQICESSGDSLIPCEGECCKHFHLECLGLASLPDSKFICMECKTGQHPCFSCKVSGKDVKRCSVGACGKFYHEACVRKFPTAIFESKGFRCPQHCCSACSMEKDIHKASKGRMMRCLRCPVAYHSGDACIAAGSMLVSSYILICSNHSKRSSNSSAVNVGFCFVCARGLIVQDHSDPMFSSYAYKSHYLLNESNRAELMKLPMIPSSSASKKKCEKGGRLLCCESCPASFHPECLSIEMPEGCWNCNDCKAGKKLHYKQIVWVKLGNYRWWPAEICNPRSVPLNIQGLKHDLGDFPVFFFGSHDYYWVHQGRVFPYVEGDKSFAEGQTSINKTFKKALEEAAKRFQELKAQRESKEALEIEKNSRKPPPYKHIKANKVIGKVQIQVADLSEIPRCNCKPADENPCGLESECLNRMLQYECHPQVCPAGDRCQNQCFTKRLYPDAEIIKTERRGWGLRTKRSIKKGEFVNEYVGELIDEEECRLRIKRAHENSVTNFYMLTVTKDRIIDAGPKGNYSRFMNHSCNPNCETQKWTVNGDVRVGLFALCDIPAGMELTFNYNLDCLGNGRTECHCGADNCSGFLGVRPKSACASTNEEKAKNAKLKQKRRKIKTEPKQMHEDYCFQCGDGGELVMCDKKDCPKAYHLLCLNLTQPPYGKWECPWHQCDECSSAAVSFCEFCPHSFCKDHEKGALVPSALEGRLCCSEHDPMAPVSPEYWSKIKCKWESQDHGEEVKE

[10] = test system: RD SMARCB1 wild-type cells; test: Cell cycle analysis (flow cytometry) and TUNEL assay, RD; type: cell-based; conditions: 1 μM, up to 14 days
Description: as §4

SMYD2 = SMYD2 (Homo sapiens, UniProt Q9NRG4); test: Histone methyltransferase inhibition, SMYD2; type: biochemical
SMYD2, sequence (Q9NRG4 whole entry, species assumed): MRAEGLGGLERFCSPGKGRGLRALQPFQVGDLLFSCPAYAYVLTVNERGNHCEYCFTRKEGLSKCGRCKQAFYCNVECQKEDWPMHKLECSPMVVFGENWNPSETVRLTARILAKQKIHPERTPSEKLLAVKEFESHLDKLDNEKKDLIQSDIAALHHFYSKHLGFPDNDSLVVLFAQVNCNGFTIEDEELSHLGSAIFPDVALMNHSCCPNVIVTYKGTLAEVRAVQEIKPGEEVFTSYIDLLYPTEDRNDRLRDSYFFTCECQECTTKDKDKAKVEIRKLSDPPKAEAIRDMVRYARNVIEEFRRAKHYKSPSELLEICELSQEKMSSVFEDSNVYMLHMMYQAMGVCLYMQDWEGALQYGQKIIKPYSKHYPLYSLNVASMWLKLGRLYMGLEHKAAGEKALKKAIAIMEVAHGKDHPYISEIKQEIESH

OCI-LY19 cells = conditions: OCI-LY19 (EZH2 wild type for residue Y641)
G401 cells = conditions: pretreated 7 days, replated on day 0
Description: SJCRH30 cells were cultured in RPMI+10% FBS. A204, G401, and G402 cells were cultured in McCoys 5a+10% FBS. KYM-1 cells were cultured in DMEM/Ham's F12+10% FBS.
Plates were read on Day 0, Day 4, and Day 7 using CellTiter-Glo® (Promega), with compound/media being replenished on Day 4. On Day 7, the 6-well plates were trypsinized, centrifuged, and resuspended in fresh media for counting by Vi-Cell. Cells from each treatment were replated at the original density in 96-well plates in triplicate. Cells were allowed to adhere to the plate overnight, and cells were treated as on Day 0. […] Averages of triplicates were used to plot proliferation over the timecourse, and calculate IC50 values.

[11] = test system: G401 SNF mutant cell line; test: Soft agar growth, G401; type: cell-based; conditions: after 7 days
[12] = test system: LNCAP prostate cancer cells; test: Cell growth inhibition in vitro, LNCAP; type: cell-based
[13] = test system: ATRX mutant SCLC line NCI-H446; test: Response of ATRX mutant SCLC lines to Compound E, NCI-H446; type: cell-based
[14] = test system: ATRX mutant SCLC line SW1271; test: Response of ATRX mutant SCLC lines to Compound E, SW1271; type: cell-based
[15] = test system: ATRX mutant SCLC line NCI-H841; test: Response and morphology of ATRX mutant SCLC line NCI-H841 with Compound E; type: cell-based
[16] = test system: SNF5 mutant cell line G402; test: Response of cell lines to Compound E (FIG. 2), G402; type: cell-based
[17] = test system: SNF5 mutant cell line A204; test: Response of cell lines to Compound E (FIG. 2), A204; type: cell-based
[18] = test system: SNF5 mutant cell line G401; test: Response of cell lines to Compound E (FIG. 2), G401; type: cell-based
[19] = read-out: % Inhibition at 1 μM Compound A, mean and SD of duplicate experiments
[20] = 4-day Compound A, 11-day Washout
[21] = 7-day Compound A, 7-day Washout

CCN(c1cc(-c2ccc(CN3CCOCC3)cc2)cc(C(=O)NCc2c(C)cc(C)[nH]c2=O)c1C)C1CCOCC1 [Compound A, N-((4,6-dimethyl-2-oxo-1,2-dihydropyridin-3-yl)methyl)-5-(ethyl (tetrahydro-2H-pyran-4-yl)amino)-4-methyl-4′-(morpholinomethyl)-[1,1′-biphenyl]-3-carboxamide]
inhibition at 1 µM (PRMT6): 3 ± 3%
specificity for inhibition of cellular histone methylation (H3K27Me3 in G401 cells): selective inhibition of cellular H3K27 methylation
IC50 (EHMT2; one experiment): > 50 µM
inhibition at 1 µM (EHMT2; [19]): 7 ± 3%
IC50 (WHSC1; one experiment): > 100 µM
inhibition at 1 µM (WHSC1; [19]): 8 ± 3%
IC50 (PRMT1; one experiment): > 50 µM
inhibition at 1 µM (PRMT1; [19]): 5 ± 4%
expression of the SMARCB1 regulated genes [1]: minimal effect on expression
inhibition at 1 µM (SMYD3): 0%
increase in sensitivity over the Y641 mutant cell lines, measured by IC50 value (Pfeiffer cells): 20 fold
increase in sensitivity over the Y641 mutant cell lines, measured by LCC (Pfeiffer cells): 300 fold
expression of CDKN1A, CDKN2A and BIN1 [2]: up-regulated cell cycle inhibitors CDKN1A and CDKN2A and tumor suppressor BIN1
expression of neuronal differentiation genes CD133, DOCK4, PTPRK [2]: strongly induced expression of CD133, DOCK4 and PTPRK
cell cycle (G1 arrest) [3]: increase in the percentage of cells in G1 phase, and a concomitant decrease in S phase and G2/M phase after 7 days; also recorded: G1 arrest was observed as of day 7
sub-G1 fraction and apoptotic cells (TUNEL assay) [3]: increased in a time dependent manner; also recorded: apoptosis was induced as of day 11
antitumor effect, intermittent dosing schedules (KARPAS-422 xenografts; 90 mg/kg BID): tumor growth inhibition
antitumor effect, intermittent dosing schedules (KARPAS-422 xenografts; 361 mg/kg BID): complete regressions
tumor H3K27Me3 levels (KARPAS-422 xenografts; 7-day study, nude mice, BID and QD schedules): dose-dependent reduction of tumor H3K27Me3 levels
tumor re-growth after cessation of dosing (KARPAS-422 xenografts; higher doses, up to 90 days after cessation of dosing): no re-growth
Day 11 LCC [4, 20]: 0.36 µM
Day 14 LCC [4, 20]: 0.42 µM
Day 11 LCC [4, 21]: 0.19 µM
Day 14 LCC [4, 21]: 0.075 µM
Day 11 LCC ([4]; No Washout): 0.17 µM
Day 14 LCC ([4]; No Washout): 0.11 µM
IC50 (CARM1; mean of duplicate experiments): > 50 µM
inhibition at 1 µM (CARM1; read-out: % Inhibition at 1 μM Compound A, mean and standard deviation of duplicate experiments): 5 ± 3%
tumor growth after the dosing period compared to vehicle ([5]; 125 mg/kg): significant tumor growth delay
tumor growth after dosing stop compared to vehicle ([5]; 133 mg/kg): significant tumor growth delay
tumor re-growth ([5]; 250 or 500 mg/kg BID, 32 days after dose cessation): Re-growth was not observed
antitumor effect ([5]; 250 or 500 mg/kg twice daily (BID) for 21 to 28 days): practically eliminated
antitumor effect ([5]; 266 or 532 mg/kg BID for 28 days): eliminated
tumor re-growth ([5]; 266 or 532 mg/kg BID, study end, 32 days after dosing stop): re-growth was not observed
plasma levels (systemic exposure) ([5]; 5 min before or 3 h after dosing on day 21, LC-MS/MS): dose-dependent increase in systemic exposure
gene expression in G401 xenograft tumors ([5]; treated 21 days, qPCR): dose-dependent changes in the expression of CD133, PTPRK, DOCK4 and GLI1
H3K27me3 in tumors (ELISA) ([5]; tumors harvested on day 21, maximum effect at 250 mg/kg): strong inhibition of H3K27me3
IC50 (EHMT1; one experiment): > 50 µM
inhibition at 1 µM (EHMT1; [19]): 6 ± 6%
IC50 (PRMT8; one experiment): > 50 µM
inhibition at 1 µM (PRMT8; [19]): 7 ± 3%
IC50 (DOT1L; one experiment): > 50 µM
inhibition at 1 µM (DOT1L; [19]): 2 ± 8%
cell morphology [6]: neuron-like morphology
sub-G1 fraction (WSU-DLCL2 cells [7]; 1 μM, 7 days): no apparent increase in the sub-G1 fraction
cell cycle progression (WSU-DLCL2 cells [7]; 1 μM, apparent after 2 days, maximum after 4 days): increase in the percentage of cells in G1 phase, and a decrease in the percentage of cells in S phase and G2/M phase
fraction of apoptotic cells (TUNEL assay) (WSU-DLCL2 cells [7]; day 14 compared to vehicle): significantly increased
inhibition at 1 µM (SETD7): 4 ± 3%
oral bioavailability [8]: excellent
IC50 (PRMT5/MEP50; one experiment): > 50 µM
inhibition at 1 µM (PRMT5/MEP50; [19]): 2 ± 6%
inhibition at 1 µM (PRMT3): 2 ± 2%
specificity for inhibition of cellular histone methylation (H3K27Me3 in RD cells): selective inhibition of cellular H3K27 methylation
LCC for WSU-DLCL2 cells as plasma level (WSU-DLCL2 cells [9]): 1652 ng/mL
IC50 (WHSC1L1; one experiment): > 100 µM
inhibition at 1 µM (WHSC1L1; [19]): 9 ± 8%
cell cycle and apoptosis compared to DMSO control [10]: no changes in cell cycle or apoptosis
IC50 (SMYD2; one experiment): > 50 µM
inhibition at 1 µM (SMYD2; [19]): 1 ± 2%
growth over 11 days (OCI-LY19 cells): not significantly affected
sensitivity in vitro (cell viability, CellTiter-Glo) (G401 cells): sensitive

CCN(c1cc(-c2ccc(CN3CCOCC3)cc2)cc(C(=O)NCc2c(C)cc(C)[nH]c2=O)c1C)[C@H]1CC[C@H](N(C)C)CC1 [Compound E, N-((4,6-dimethyl-2-oxo-1,2-dihydropyridin-3-yl)methyl)-5-(((1r,4r)-4-(dimethylamino)cyclohexyl)(ethyl)amino)-4-methyl-4′-(morpholinomethyl)-[1,1′-biphenyl]-3-carboxamide]
response in soft agar compared to wild type cells RD [11]: responding
cell growth inhibition [12]: dose-dependent cell growth inhibition
response [13]: responding
response [14]: responding
response [15]: responding
cell morphology ([15]; 4.1E-02 uM or 3.3 uM): changes morphology
response compared to wild type cell lines RD and SJCRH30 [16]: selectively respond
response compared to wild type cell lines RD and SJCRH30 [17]: selectively respond
response compared to wild type cell lines RD and SJCRH30 [18]: selectively respond
